ChEMBL document CHEMBL3217590, “Discovery of a new class of dithiocarbamates and rhodanine scaffolds as potent antifungal agents: synthesis, biology and molecular docking” (Medchemcomm, 2012)
Values after ≈ are worked out from the molar mass of the structure shown.

Assays:
Candida albicans [1] = assay: Antifungal activity against Candida albicans after 24 to 48 hrs by broth microdilution technique; format: functional
Candida parapsilosis = assay: Antifungal activity against Candida parapsilosis ATCC22019 after 24 to 48 hrs by broth microdilution technique; format: functional; settings: Lodderomyces parapsilosis
Sporothrix schenckii = assay: Antifungal activity against Sporothrix schenckii after 72 to 96 hrs by broth microdilution technique; format: functional
[2] = tested on: Trichophyton mentagrophytes; assay: Antifungal activity against Trichophyton mentagrophytes after 72 to 96 hrs by broth microdilution technique; format: functional
Aspergillus fumigatus = assay: Antifungal activity against Aspergillus fumigatus after 72 to 96 hrs by broth microdilution technique; format: functional
Cryptococcus neoformans = assay: Antifungal activity against Cryptococcus neoformans after 24 to 48 hrs by broth microdilution technique; format: functional
Candida albicans [3] = assay: Anticandidal activity against Candida albicans ATCC10231 after 24 to 48 hrs by broth microdilution technique; format: functional
Candida albicans [4] = assay: Anticandidal activity against Candida albicans ATCC14053 after 24 to 48 hrs by broth microdilution technique; format: functional
Candida albicans [5] = assay: Anticandidal activity against Candida albicans CDRI after 24 to 48 hrs by broth microdilution technique; format: functional
Candida albicans [6] = assay: Anticandidal activity against Candida albicans isolated from patient after 24 to 48 hrs by broth microdilution technique; format: functional
Candida albicans [7] = assay: Anticandidal activity against Candida albicans MTCC183 after 24 to 48 hrs by broth microdilution technique; format: functional
Candida albicans [8] = assay: Anticandidal activity against Candida albicans ATCC750 after 24 to 48 hrs by broth microdilution technique; format: functional
Candida albicans [9] = assay: Anticandidal activity against Candida albicans ATCC-MYA 2950 after 24 to 48 hrs by broth microdilution technique; format: functional
Candida albicans [10] = assay: Anticandidal activity against amphotericin-B resistant Candida albicans after 24 to 48 hrs by broth microdilution technique; format: functional
Candida albicans [11] = assay: Ratio of fluconazole MIC to compound MIC against amphotericin-B resistant Candida albicans after 24 to 48 hrs by broth microdilution technique; format: functional
L929 [12] = assay: Cytotoxicity against mouse L929 cells assessed as morphological changes up to 3.12 ug/ml after 24 hrs by giemsa staining based phase contrast microscopy; format: cell-based; settings: l929, 24 h
L929 [13] = assay: Cytotoxicity against mouse L929 cells assessed as decline in cell survival at 12.5 to 50 ug/ml after 24 hrs by spectrophotometric analysis; format: cell-based; settings: l929, 24 h

SMILES	MIC (Candida albicans [1])	MIC (Candida parapsilosis)	MIC (Sporothrix schenckii)	MIC [2]	MIC (Aspergillus fumigatus)	MIC (Cryptococcus neoformans)	MIC (Candida albicans [3])	MIC (Candida albicans [4])	MIC (Candida albicans [5])	MIC (Candida albicans [6])	MIC (Candida albicans [7])	MIC (Candida albicans [8])	MIC (Candida albicans [9])	MIC (Candida albicans [10])	Ratio (Candida albicans [11])	Activity (L929 [12])	Activity (L929 [13])
COc1cc(/C=C2\SC(=S)N(Cc3ccncc3)C2=O)cc(OC)c1OC	12.5 mg/L (≈ 31.1 µM)	50 mg/L (≈ 124 µM)	25 mg/L (≈ 62.1 µM)	50 mg/L (≈ 124 µM)	> 50 mg/L	50 mg/L (≈ 124 µM)	–	–	–	–	–	–	–	–	–	–	–
CCSC(=S)NCc1ccncc1	3.12 mg/L (≈ 14.7 µM)	3.12 mg/L (≈ 14.7 µM)	1.56 mg/L (≈ 7.35 µM)	3.12 mg/L (≈ 14.7 µM)	50 mg/L (≈ 235 µM)	3.12 mg/L (≈ 14.7 µM)	6.25 mg/L (≈ 29.4 µM)	3.12 mg/L (≈ 14.7 µM)	6.25 mg/L (≈ 29.4 µM)	12.5 mg/L (≈ 58.9 µM)	1.56 mg/L (≈ 7.35 µM)	12.5 mg/L (≈ 58.9 µM)	12.5 mg/L (≈ 58.9 µM)	1.56 mg/L (≈ 7.35 µM)	5	Non-toxic	Toxic
CCCCSC(=S)NCc1ccncc1	3.12 mg/L (≈ 13 µM)	6.25 mg/L (≈ 26 µM)	3.12 mg/L (≈ 13 µM)	3.12 mg/L (≈ 13 µM)	50 mg/L (≈ 208 µM)	3.12 mg/L (≈ 13 µM)	6.25 mg/L (≈ 26 µM)	3.12 mg/L (≈ 13 µM)	12.5 mg/L (≈ 52 µM)	12.5 mg/L (≈ 52 µM)	1.56 mg/L (≈ 6.49 µM)	12.5 mg/L (≈ 52 µM)	12.5 mg/L (≈ 52 µM)	1.56 mg/L (≈ 6.49 µM)	5	Non-toxic	Toxic
S=C(NCc1ccncc1)SCc1ccccc1	1.56 mg/L (≈ 5.68 µM)	1.56 mg/L (≈ 5.68 µM)	6.25 mg/L (≈ 22.8 µM)	6.25 mg/L (≈ 22.8 µM)	25 mg/L (≈ 91.1 µM)	1.56 mg/L (≈ 5.68 µM)	1.56 mg/L (≈ 5.68 µM)	0.78 mg/L (≈ 2.84 µM)	1.56 mg/L (≈ 5.68 µM)	1.56 mg/L (≈ 5.68 µM)	0.39 mg/L (≈ 1.42 µM)	3.12 mg/L (≈ 11.4 µM)	1.56 mg/L (≈ 5.68 µM)	12.5 mg/L (≈ 45.6 µM)	–	Non-toxic	Toxic
FC(F)(F)c1ccc(CSC(=S)NCc2ccncc2)cc1	1.56 mg/L (≈ 4.56 µM)	1.56 mg/L (≈ 4.56 µM)	6.25 mg/L (≈ 18.3 µM)	6.25 mg/L (≈ 18.3 µM)	50 mg/L (≈ 146 µM)	1.56 mg/L (≈ 4.56 µM)	–	–	1.56 mg/L (≈ 4.56 µM)	3.12 mg/L (≈ 9.11 µM)	0.78 mg/L (≈ 2.28 µM)	3.12 mg/L (≈ 9.11 µM)	1.56 mg/L (≈ 4.56 µM)	12.5 mg/L (≈ 36.5 µM)	–	Non-toxic	Toxic
O=C1/C(=C/c2ccccc2)SC(=S)N1Cc1ccncc1	25 mg/L (≈ 80 µM)	50 mg/L (≈ 160 µM)	25 mg/L (≈ 80 µM)	50 mg/L (≈ 160 µM)	> 50 mg/L	50 mg/L (≈ 160 µM)	–	–	–	–	–	–	–	–	–	–	–
O=C1/C(=C/c2ccccc2F)SC(=S)N1Cc1ccncc1	12.5 mg/L (≈ 37.8 µM)	50 mg/L (≈ 151 µM)	1.56 mg/L (≈ 4.72 µM)	6.25 mg/L (≈ 18.9 µM)	> 50 mg/L	3.12 mg/L (≈ 9.44 µM)	–	–	–	–	–	–	–	–	–	–	–
O=C1/C(=C/c2ccc(Cl)cc2)SC(=S)N1Cc1ccncc1	50 mg/L (≈ 144 µM)	> 50 mg/L	> 50 mg/L	> 50 mg/L	> 50 mg/L	> 50 mg/L	–	–	–	–	–	–	–	–	–	–	–
O=C1/C(=C/c2ccccc2[N+](=O)[O-])SC(=S)N1Cc1ccncc1	3.12 mg/L (≈ 8.73 µM)	3.12 mg/L (≈ 8.73 µM)	6.25 mg/L (≈ 17.5 µM)	6.25 mg/L (≈ 17.5 µM)	> 50 mg/L	6.25 mg/L (≈ 17.5 µM)	–	–	50 mg/L (≈ 140 µM)	25 mg/L (≈ 69.9 µM)	12.5 mg/L (≈ 35 µM)	50 mg/L (≈ 140 µM)	50 mg/L (≈ 140 µM)	3.12 mg/L (≈ 8.73 µM)	2	–	–
O=C1/C(=C/c2ccc([N+](=O)[O-])cc2)SC(=S)N1Cc1ccncc1	50 mg/L (≈ 140 µM)	> 50 mg/L	25 mg/L (≈ 69.9 µM)	> 50 mg/L	> 50 mg/L	> 50 mg/L	–	–	–	–	–	–	–	–	–	–	–
CCc1ccc(/C=C2\SC(=S)N(Cc3ccncc3)C2=O)cc1	> 50 mg/L	> 50 mg/L	> 50 mg/L	> 50 mg/L	> 50 mg/L	> 50 mg/L	–	–	–	–	–	–	–	–	–	–	–
COc1ccc(/C=C2\SC(=S)N(Cc3ccncc3)C2=O)cc1	50 mg/L (≈ 146 µM)	50 mg/L (≈ 146 µM)	> 50 mg/L	> 50 mg/L	> 50 mg/L	> 50 mg/L	–	–	–	–	–	–	–	–	–	–	–
COc1ccc(/C=C2\SC(=S)N(Cc3ccncc3)C2=O)cc1OC	25 mg/L (≈ 67.1 µM)	25 mg/L (≈ 67.1 µM)	> 50 mg/L	> 50 mg/L	> 50 mg/L	50 mg/L (≈ 134 µM)	–	–	–	–	–	–	–	–	–	–	–
O=C1/C(=C/c2cccnc2)SC(=S)N1Cc1ccncc1	1.56 mg/L (≈ 4.98 µM)	6.25 mg/L (≈ 19.9 µM)	1.56 mg/L (≈ 4.98 µM)	6.25 mg/L (≈ 19.9 µM)	25 mg/L (≈ 79.8 µM)	3.12 mg/L (≈ 9.96 µM)	3.12 mg/L (≈ 9.96 µM)	0.78 mg/L (≈ 2.49 µM)	1.56 mg/L (≈ 4.98 µM)	3.12 mg/L (≈ 9.96 µM)	0.78 mg/L (≈ 2.49 µM)	3.12 mg/L (≈ 9.96 µM)	1.56 mg/L (≈ 4.98 µM)	6.25 mg/L (≈ 19.9 µM)	1	–	–
O=C1/C(=C/c2cc3c(cc2[N+](=O)[O-])OCO3)SC(=S)N1Cc1ccncc1	0.78 mg/L (≈ 1.94 µM)	3.12 mg/L (≈ 7.77 µM)	1.56 mg/L (≈ 3.89 µM)	3.12 mg/L (≈ 7.77 µM)	> 50 mg/L	3.12 mg/L (≈ 7.77 µM)	3.12 mg/L (≈ 7.77 µM)	1.56 mg/L (≈ 3.89 µM)	3.12 mg/L (≈ 7.77 µM)	1.56 mg/L (≈ 3.89 µM)	3.12 mg/L (≈ 7.77 µM)	6.25 mg/L (≈ 15.6 µM)	1.56 mg/L (≈ 3.89 µM)	12.5 mg/L (≈ 31.1 µM)	–	Non-toxic	Toxic
O=C1/C(=C/c2ccco2)SC(=S)N1Cc1ccncc1	3.12 mg/L (≈ 10.3 µM)	50 mg/L (≈ 165 µM)	3.12 mg/L (≈ 10.3 µM)	12.5 mg/L (≈ 41.3 µM)	> 50 mg/L	25 mg/L (≈ 82.7 µM)	–	1.56 mg/L (≈ 5.16 µM)	25 mg/L (≈ 82.7 µM)	–	3.12 mg/L (≈ 10.3 µM)	–	6.25 mg/L (≈ 20.7 µM)	6.25 mg/L (≈ 20.7 µM)	1	Non-toxic	Toxic
O=C1/C(=C/c2cccc3ccccc23)SC(=S)N1Cc1ccncc1	25 mg/L (≈ 69 µM)	50 mg/L (≈ 138 µM)	12.5 mg/L (≈ 34.5 µM)	25 mg/L (≈ 69 µM)	> 50 mg/L	50 mg/L (≈ 138 µM)	–	–	–	–	–	–	–	–	–	–	–
O=C1/C(=C/c2ccc(/C=C3\SC(=S)N(Cc4ccncc4)C3=O)cc2)SC(=S)N1Cc1ccncc1	> 50 mg/L	> 50 mg/L	> 50 mg/L	> 50 mg/L	> 50 mg/L	> 50 mg/L	–	–	–	–	–	–	–	–	–	–	–
O=C1/C(=C/c2ccc(OCCOc3ccc(/C=C4\SC(=S)N(Cc5ccncc5)C4=O)cc3)cc2)SC(=S)N1Cc1ccncc1	> 50 mg/L	> 50 mg/L	> 50 mg/L	> 50 mg/L	> 50 mg/L	> 50 mg/L	–	–	–	–	–	–	–	–	–	–	–
O=C1/C(=C/c2ccc(OCCCOc3ccc(/C=C4\SC(=S)N(Cc5ccncc5)C4=O)cc3)cc2)SC(=S)N1Cc1ccncc1	> 50 mg/L	> 50 mg/L	> 50 mg/L	> 50 mg/L	> 50 mg/L	> 50 mg/L	–	–	–	–	–	–	–	–	–	–	–
O=C1/C(=C/c2ccc(OCCCCOc3ccc(/C=C4\SC(=S)N(Cc5ccncc5)C4=O)cc3)cc2)SC(=S)N1Cc1ccncc1	> 50 mg/L	> 50 mg/L	> 50 mg/L	> 50 mg/L	> 50 mg/L	> 50 mg/L	–	–	–	–	–	–	–	–	–	–	–
O=C1/C(=C/c2ccc(OCCCCCOc3ccc(/C=C4\SC(=S)N(Cc5ccncc5)C4=O)cc3)cc2)SC(=S)N1Cc1ccncc1	> 50 mg/L	> 50 mg/L	> 50 mg/L	> 50 mg/L	> 50 mg/L	> 50 mg/L	–	–	–	–	–	–	–	–	–	–	–
Clc1ccccc1C(c1ccccc1)(c1ccccc1)n1ccnc1 [CLOTRIMAZOLE]	0.25 mg/L (≈ 0.725 µM)	0.5 mg/L (≈ 1.45 µM)	4 mg/L (≈ 11.6 µM)	2 mg/L (≈ 5.8 µM)	2 mg/L (≈ 5.8 µM)	0.25 mg/L (≈ 0.725 µM)	–	–	–	–	–	–	–	–	–	–	–
OC(Cn1cncn1)(Cn1cncn1)c1ccc(F)cc1F [FLUCONAZOLE]	1 mg/L (≈ 3.27 µM)	0.5 mg/L (≈ 1.63 µM)	4 mg/L (≈ 13.1 µM)	16 mg/L (≈ 52.2 µM)	> 32 mg/L	2 mg/L (≈ 6.53 µM)	1 mg/L (≈ 3.27 µM)	0.25 mg/L (≈ 0.816 µM)	0.125 mg/L (≈ 0.408 µM)	0.25 mg/L (≈ 0.816 µM)	4 mg/L (≈ 13.1 µM)	0.5 mg/L (≈ 1.63 µM)	0.062 mg/L (≈ 0.202 µM)	8 mg/L (≈ 26.1 µM)	–	–	–
